Assay results published in BindingDB's records for PubMed 2138666 (Department of Veterans Affairs Medical Center, 1990).

Experiments:
[1] = biological target: T1, Alpha-2C adrenergic receptor (Rattus norvegicus, UniProt P22086)
T1 sequence (P22086 whole entry): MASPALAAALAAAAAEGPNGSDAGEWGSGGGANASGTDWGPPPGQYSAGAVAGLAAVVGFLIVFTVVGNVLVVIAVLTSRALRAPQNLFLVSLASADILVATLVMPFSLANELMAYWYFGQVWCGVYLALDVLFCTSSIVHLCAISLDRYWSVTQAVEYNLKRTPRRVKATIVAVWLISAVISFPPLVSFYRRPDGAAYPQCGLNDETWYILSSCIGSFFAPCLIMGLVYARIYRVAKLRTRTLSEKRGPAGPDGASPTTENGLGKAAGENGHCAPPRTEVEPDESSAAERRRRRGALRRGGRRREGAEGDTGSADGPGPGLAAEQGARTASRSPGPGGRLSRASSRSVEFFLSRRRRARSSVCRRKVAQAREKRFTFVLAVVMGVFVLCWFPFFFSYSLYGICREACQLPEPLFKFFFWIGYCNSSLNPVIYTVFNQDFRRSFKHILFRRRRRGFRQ

[2] = biological target: D(2) dopamine receptor (Rattus norvegicus, UniProt P61169)
Sequence of D(2) dopamine receptor (P61169 whole entry): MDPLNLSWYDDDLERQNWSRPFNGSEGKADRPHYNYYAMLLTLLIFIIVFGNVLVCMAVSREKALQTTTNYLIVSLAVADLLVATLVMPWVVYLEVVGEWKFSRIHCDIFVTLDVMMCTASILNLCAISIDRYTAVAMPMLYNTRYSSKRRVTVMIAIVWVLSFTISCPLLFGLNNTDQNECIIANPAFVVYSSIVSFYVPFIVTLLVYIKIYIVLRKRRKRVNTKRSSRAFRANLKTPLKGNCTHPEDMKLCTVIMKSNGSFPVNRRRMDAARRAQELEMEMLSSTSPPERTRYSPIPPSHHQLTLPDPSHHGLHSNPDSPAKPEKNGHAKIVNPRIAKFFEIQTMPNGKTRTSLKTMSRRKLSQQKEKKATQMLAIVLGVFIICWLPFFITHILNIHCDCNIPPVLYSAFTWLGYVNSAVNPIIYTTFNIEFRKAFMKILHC

CC(C)(C)[C@]1(O)CCN2C[C@H]3c4ccccc4CCc4cccc(c43)[C@@H]2C1
Ki [1]: 0.158 µM

Clc1cccc(Cl)c1N=C1NCCN1 [2-(2,6-dichloroanilino)-2-imidazoline]
Ki [2]: > 10 µM

Nc1cc(Cl)c(N=C2NCCN2)c(Cl)c1 [p-AMINOCLONIDINE]
Ki [2]: > 10 µM

CCN1CCCC1CNC(=O)c1cc(S(N)(=O)=O)ccc1OC (stereo not given) [N-[(1-ethylpyrrolidin-2-yl)methyl]-2-methoxy-5-sulfamoylbenzamide]
Ki [1]: 4.3 µM

c1ccc2c(c1)OCC(C1=NCCN1)O2 (stereo not given)
Ki [2]: > 10 µM
